Laboratory results taken from ChEMBL document CHEMBL1201862, “PubChem BioAssay data set” (2004).
Calls of active or inactive are those of the source.

Experiments:
[1] = biological target: T1, Short transient receptor potential channel 4 (Mus musculus, UniProt Q9QUQ5); assay: mouse TRPC4 channel activators, dose response, cell-based, HEK293 TRPC4/mu-opioid, Fluo-4 calcium (AID 434937); type: functional
T1 sequence (Q9QUQ5 whole entry): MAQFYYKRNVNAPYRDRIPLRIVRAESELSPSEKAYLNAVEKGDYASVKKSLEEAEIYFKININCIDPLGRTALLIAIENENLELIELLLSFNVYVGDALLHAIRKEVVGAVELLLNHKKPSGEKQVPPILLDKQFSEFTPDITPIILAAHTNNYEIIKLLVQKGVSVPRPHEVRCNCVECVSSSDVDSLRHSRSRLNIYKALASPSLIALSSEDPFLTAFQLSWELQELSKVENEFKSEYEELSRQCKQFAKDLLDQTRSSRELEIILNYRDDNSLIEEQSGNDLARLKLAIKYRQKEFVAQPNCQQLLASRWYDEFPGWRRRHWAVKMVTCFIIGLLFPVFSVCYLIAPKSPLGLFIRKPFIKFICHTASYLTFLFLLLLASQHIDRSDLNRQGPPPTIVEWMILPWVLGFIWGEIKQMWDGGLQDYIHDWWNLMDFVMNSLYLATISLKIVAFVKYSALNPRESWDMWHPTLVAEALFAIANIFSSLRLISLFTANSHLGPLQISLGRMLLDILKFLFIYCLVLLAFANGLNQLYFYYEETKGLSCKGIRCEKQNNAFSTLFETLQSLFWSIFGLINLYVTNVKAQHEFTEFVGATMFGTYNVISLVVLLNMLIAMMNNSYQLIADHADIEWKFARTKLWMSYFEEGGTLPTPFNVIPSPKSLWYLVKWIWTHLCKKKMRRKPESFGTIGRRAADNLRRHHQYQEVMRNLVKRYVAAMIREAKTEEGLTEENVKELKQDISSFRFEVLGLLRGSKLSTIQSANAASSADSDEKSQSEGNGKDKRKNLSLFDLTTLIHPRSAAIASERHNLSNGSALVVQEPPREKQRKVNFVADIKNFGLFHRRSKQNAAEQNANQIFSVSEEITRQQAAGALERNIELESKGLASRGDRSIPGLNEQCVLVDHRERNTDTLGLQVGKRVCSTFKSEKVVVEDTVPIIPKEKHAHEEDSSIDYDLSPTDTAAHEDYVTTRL

[2] = NIH-3T3 fibroblast cytotoxicity, dose response, cytotoxicity control, cell-based, fluorescence, Alamar Blue, secondary assay (AID 2327); type: functional;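 note: NIH-3T3 mouse fibroblasts cultured with fluconazole at 8 µg/mL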
[3] = biological target: T2, High affinity choline transporter 1 (Homo sapiens, UniProt Q9GZV3); assay: CHT inhibitors, dose response, cell-based, 10-point CRC, membrane potential dye (AID 588401); type: functional;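 note: membrane potential dye fluorescence of choline-evoked depolarization via CHT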
T2 sequence (Q9GZV3 whole entry): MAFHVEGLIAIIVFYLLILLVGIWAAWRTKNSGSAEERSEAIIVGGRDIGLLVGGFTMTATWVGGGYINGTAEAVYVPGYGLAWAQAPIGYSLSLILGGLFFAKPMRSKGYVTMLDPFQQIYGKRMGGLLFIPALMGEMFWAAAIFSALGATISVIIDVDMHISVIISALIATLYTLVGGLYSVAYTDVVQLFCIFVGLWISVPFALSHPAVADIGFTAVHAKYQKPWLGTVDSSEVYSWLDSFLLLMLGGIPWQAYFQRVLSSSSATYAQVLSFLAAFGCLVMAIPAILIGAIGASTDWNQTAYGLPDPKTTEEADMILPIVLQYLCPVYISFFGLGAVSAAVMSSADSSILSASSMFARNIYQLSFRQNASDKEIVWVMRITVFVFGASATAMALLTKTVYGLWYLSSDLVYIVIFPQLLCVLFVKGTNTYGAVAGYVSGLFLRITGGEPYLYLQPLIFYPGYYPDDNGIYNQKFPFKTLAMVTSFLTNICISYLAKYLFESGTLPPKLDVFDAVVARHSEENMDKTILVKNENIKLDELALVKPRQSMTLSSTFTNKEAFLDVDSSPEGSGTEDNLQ

[4] = biological target: T2, High affinity choline transporter 1; assay: CHT inhibitors, dose response, cell-based, 5-point CRC, membrane potential dye (AID 504840); type: functional
[5] = C. albicans growth with fluconazole, confirmation, fluorescence, retest (AID 2467); type: functional, cell-based
[6] = biological target: T2, High affinity choline transporter 1; assay: inhibitors of CHT choline uptake, dose response, cell-based, 3H-choline uptake, CHT LV-AA trafficking mutant, CRC (AID 602208); type: functional
Protein Wnt-3a = Protein Wnt-3a (Mus musculus, UniProt P27467); assay: Wnt3a-driven reporter signaling inhibition, dose response, selectivity assay for Gli-SUFU antagonist project, Wnt-LIGHT cells, luminescence (AID 651570); type: functional; settings: read-out: IC50_Mean;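 note: Wnt-LIGHT reporter cells stimulated with conditioned medium from Wnt3a-producing cells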
Sequence of Protein Wnt-3a (P27467 whole entry): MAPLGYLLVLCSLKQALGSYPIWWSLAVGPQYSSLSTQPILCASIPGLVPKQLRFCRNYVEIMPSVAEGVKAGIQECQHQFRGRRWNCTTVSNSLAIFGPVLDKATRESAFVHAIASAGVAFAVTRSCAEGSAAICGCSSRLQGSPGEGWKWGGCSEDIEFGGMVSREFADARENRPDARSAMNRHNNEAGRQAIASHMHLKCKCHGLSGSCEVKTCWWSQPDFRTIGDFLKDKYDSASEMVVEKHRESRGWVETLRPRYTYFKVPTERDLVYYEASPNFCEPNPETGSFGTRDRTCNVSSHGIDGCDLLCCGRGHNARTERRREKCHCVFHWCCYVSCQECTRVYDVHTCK

[7] = biological target: T3, Sentrin-specific protease 6 (Homo sapiens, UniProt Q9GZR1); assay: SAR Analysis of small molecule inhibitors of Sentrin-specific protease 6 (SENP6) using a Luminescent assay. [Related pubchem assays (depositor defined):AID2582, AID2599]; type: functional
T3 sequence (Q9GZR1 whole entry): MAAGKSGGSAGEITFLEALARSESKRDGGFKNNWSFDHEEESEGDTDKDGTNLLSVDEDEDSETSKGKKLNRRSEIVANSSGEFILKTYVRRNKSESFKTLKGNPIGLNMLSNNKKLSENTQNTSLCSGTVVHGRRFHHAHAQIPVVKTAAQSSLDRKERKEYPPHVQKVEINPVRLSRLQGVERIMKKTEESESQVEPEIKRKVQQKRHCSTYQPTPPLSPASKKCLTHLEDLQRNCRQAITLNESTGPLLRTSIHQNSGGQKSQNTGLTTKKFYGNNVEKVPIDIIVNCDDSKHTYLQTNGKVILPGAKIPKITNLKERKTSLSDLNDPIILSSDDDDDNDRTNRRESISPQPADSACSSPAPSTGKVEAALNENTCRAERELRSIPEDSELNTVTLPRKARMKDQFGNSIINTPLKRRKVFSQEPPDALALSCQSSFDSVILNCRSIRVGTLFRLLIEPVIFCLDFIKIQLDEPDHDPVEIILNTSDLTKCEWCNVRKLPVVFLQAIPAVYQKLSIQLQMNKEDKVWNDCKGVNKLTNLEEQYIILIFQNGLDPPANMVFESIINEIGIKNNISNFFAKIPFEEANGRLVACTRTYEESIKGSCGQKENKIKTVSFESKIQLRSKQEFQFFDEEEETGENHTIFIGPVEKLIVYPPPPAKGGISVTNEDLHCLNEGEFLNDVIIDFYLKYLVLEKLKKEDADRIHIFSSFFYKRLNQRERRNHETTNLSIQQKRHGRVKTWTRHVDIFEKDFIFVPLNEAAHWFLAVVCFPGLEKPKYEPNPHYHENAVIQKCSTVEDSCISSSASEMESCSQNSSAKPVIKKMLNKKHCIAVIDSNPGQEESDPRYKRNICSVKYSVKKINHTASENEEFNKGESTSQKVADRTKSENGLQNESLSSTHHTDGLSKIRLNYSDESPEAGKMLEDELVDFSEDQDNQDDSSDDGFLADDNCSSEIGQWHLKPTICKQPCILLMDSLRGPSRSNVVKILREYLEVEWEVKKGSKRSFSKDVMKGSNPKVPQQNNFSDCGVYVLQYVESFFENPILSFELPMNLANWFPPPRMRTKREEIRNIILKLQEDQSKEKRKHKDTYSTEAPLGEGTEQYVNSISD

[8] = biological target: T4, Sentrin-specific protease 8 (Homo sapiens, UniProt Q96LD8); assay: SENP8 protease inhibitors, SAR follow-up, biochemical, luminescence (AID 504501); type: functional
T4 sequence (Q96LD8 whole entry): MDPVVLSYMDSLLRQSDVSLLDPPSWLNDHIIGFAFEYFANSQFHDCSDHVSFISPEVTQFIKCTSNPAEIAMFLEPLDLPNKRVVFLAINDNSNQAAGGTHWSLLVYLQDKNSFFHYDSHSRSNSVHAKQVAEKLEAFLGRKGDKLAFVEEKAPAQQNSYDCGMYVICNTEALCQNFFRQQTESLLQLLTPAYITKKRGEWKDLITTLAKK

[9] = biological target: T5, Sentrin-specific protease 7 (Homo sapiens, UniProt Q9BQF6); assay: SENP7 protease inhibitors, SAR follow-up, biochemical, luminescence (AID 504497); type: functional
T5 sequence (Q9BQF6 whole entry): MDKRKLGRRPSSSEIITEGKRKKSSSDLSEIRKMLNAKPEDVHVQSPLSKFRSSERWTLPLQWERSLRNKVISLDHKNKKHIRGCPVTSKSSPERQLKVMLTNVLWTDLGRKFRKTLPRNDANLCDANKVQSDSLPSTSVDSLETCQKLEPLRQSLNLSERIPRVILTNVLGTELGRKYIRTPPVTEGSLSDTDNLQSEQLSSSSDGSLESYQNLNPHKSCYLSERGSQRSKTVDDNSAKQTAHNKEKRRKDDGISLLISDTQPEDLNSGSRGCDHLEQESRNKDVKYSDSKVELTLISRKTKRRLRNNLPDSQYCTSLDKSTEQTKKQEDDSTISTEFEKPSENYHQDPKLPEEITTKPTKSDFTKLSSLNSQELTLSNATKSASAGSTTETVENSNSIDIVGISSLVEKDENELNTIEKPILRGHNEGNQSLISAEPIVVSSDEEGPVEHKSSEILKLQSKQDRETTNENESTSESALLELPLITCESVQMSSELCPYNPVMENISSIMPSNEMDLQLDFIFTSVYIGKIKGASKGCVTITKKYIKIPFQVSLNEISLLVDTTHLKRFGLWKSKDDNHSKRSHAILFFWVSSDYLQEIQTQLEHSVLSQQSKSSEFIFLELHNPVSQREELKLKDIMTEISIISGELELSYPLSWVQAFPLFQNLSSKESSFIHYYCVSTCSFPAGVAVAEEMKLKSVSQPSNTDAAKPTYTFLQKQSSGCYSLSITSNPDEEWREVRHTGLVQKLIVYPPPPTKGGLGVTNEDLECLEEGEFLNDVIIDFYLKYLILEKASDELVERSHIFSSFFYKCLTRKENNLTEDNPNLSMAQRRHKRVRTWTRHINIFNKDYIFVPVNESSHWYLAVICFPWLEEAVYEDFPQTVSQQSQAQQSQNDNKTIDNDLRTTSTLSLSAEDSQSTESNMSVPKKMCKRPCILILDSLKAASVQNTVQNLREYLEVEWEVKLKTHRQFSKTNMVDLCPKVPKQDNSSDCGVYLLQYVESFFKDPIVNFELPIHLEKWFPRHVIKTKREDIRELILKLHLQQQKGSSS

Caspase-3 = biological target: T6, Caspase-3 (Homo sapiens, UniProt P42574); assay: SAR Analysis of small molecule inhibitors of Sentrin-specific proteases (SENPs) using a Caspase-3 Selectivity assay. [Related pubchem assays (depositor defined):AID2540, AID2599, AID434973, AID489001]; type: functional
T6 sequence (P42574 whole entry): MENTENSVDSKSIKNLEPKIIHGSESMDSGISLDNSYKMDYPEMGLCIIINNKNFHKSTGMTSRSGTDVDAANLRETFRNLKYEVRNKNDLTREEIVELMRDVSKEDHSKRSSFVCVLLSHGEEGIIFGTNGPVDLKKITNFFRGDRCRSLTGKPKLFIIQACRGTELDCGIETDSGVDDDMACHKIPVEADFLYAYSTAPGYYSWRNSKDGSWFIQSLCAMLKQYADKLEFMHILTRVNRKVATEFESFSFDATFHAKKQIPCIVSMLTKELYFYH

[10] = biological target: Dual specificity protein kinase CLK4 (Homo sapiens, UniProt Q9HAZ1); type: functional
Sequence of Dual specificity protein kinase CLK4 (Q9HAZ1 whole entry): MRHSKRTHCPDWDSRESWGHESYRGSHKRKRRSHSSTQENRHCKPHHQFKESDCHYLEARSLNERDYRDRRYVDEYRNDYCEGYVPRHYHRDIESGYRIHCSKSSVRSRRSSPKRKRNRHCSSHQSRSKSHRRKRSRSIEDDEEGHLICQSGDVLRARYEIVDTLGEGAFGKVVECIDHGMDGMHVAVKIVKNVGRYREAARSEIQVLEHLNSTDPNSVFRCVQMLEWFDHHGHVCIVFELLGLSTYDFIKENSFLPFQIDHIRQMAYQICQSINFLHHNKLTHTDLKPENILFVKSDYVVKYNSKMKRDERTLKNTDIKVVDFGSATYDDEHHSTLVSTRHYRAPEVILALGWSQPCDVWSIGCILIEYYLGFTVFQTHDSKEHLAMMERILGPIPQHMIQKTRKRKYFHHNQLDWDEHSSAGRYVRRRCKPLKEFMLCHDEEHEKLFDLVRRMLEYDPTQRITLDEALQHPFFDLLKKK

[11] = biological target: T7, Serine/threonine-protein kinase Chk1 (Homo sapiens, UniProt O14757); type: functional;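 note: measured as one member of a kinome-wide kinase profiling panel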
T7 sequence (O14757 whole entry): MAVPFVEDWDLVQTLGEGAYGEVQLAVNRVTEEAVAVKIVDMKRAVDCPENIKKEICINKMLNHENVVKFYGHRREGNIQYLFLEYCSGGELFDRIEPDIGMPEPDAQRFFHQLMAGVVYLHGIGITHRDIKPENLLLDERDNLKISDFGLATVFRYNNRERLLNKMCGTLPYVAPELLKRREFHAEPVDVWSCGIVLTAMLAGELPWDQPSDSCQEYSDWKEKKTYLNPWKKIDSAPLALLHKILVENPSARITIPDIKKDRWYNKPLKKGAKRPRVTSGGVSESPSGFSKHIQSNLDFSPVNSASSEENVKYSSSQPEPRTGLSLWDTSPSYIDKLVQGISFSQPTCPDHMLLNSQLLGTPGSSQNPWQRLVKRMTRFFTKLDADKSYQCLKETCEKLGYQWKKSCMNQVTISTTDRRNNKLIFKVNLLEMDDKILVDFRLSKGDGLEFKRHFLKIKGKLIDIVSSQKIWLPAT

LIM domain kinase 1 = LIM domain kinase 1 (Homo sapiens, UniProt P53667); assay: Navigating the Kinome. Panel member name: LIMK1; type: functional
Sequence of LIM domain kinase 1 (P53667 whole entry, the tested form may be a part): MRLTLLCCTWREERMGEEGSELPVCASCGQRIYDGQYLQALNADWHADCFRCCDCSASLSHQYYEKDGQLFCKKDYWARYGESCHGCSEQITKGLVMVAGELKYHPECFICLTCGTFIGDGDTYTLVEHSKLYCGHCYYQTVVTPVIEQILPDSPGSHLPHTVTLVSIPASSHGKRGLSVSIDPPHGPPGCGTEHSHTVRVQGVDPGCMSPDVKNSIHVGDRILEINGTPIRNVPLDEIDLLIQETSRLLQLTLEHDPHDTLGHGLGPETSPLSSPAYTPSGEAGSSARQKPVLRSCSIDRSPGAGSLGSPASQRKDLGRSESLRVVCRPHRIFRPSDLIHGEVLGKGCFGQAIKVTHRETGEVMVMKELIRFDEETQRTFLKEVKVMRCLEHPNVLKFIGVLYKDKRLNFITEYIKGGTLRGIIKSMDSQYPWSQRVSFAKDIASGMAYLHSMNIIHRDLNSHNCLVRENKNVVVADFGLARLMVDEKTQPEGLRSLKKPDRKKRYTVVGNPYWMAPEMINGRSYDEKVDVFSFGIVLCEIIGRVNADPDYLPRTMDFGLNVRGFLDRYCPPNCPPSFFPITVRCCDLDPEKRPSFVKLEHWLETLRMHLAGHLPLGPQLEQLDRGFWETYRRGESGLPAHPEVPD

[12] = biological target: Dual specificity tyrosine-phosphorylation-regulated kinase 1A (Homo sapiens, UniProt Q13627); type: functional;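 note: measured against DYRK1A as one member of a broad kinome profiling panel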
[13] = biological target: Hepatocyte growth factor receptor (Homo sapiens, UniProt P08581); type: functional;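 note: kinase panel profiling across the kinome, with MET as the panel member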
Sequence of Hepatocyte growth factor receptor (P08581 whole entry): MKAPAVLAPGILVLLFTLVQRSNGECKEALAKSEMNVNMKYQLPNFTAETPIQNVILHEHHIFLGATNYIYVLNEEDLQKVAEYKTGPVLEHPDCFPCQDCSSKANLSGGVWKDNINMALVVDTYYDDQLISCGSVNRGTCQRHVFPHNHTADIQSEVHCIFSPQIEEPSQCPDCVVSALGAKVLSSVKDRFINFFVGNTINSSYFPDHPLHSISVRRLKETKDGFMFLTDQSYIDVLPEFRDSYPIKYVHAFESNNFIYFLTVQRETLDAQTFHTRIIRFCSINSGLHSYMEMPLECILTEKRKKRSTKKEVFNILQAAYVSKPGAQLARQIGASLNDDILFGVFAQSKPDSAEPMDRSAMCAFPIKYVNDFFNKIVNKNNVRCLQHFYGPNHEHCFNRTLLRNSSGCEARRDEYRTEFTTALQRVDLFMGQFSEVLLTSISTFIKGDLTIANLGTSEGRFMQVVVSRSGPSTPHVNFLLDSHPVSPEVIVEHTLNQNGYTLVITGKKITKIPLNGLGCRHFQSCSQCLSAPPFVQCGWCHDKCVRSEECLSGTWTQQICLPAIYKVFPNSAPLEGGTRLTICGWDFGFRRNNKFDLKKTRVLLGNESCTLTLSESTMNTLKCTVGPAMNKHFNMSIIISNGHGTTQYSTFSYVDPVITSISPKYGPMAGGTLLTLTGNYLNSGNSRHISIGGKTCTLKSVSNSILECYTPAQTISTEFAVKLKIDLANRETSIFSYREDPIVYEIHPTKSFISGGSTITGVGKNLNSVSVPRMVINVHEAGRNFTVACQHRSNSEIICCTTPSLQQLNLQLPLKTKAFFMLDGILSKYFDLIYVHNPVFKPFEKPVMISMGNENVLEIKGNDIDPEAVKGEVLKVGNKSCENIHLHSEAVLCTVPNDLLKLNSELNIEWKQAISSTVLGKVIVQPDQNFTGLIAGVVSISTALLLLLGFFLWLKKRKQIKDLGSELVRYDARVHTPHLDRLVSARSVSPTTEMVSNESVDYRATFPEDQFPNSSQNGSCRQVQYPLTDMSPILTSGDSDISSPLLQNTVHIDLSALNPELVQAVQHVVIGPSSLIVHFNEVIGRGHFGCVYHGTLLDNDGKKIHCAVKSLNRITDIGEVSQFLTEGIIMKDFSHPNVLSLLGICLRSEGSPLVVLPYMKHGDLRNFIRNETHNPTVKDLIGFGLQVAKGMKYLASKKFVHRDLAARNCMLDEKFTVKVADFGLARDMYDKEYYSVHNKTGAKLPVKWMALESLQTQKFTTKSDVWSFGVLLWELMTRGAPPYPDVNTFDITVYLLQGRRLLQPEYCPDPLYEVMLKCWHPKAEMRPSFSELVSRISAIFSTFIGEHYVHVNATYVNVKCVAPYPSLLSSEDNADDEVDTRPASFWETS

[14] = biological target: Dual specificity tyrosine-phosphorylation-regulated kinase 1B (Homo sapiens, UniProt Q9Y463); assay: Navigating the Kinome. Panel member name: DYRK1B; type: functional
Sequence of Dual specificity tyrosine-phosphorylation-regulated kinase 1B (Q9Y463 whole entry): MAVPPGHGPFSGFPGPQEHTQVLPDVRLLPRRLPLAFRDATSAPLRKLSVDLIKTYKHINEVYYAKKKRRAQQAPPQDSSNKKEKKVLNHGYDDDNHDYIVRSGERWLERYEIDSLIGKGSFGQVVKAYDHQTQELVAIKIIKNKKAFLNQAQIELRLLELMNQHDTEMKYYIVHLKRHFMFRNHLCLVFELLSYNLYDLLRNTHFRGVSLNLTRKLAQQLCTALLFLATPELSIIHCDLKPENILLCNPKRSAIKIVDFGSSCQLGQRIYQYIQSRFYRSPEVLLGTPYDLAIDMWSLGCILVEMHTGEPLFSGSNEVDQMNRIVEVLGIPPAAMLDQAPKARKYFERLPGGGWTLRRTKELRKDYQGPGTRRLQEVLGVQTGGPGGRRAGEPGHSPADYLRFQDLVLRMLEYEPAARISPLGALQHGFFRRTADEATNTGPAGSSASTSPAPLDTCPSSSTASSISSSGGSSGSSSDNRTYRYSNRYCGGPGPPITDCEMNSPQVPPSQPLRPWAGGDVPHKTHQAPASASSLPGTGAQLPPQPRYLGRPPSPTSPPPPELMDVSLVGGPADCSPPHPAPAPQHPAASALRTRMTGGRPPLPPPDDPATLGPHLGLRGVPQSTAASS

[15] = biological target: Glycogen synthase kinase-3 beta (Homo sapiens, UniProt P49841); type: functional;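 note: value comes from a broad kinome profiling panel, with GSK3B as the panel member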
Sequence of Glycogen synthase kinase-3 beta (P49841 whole entry): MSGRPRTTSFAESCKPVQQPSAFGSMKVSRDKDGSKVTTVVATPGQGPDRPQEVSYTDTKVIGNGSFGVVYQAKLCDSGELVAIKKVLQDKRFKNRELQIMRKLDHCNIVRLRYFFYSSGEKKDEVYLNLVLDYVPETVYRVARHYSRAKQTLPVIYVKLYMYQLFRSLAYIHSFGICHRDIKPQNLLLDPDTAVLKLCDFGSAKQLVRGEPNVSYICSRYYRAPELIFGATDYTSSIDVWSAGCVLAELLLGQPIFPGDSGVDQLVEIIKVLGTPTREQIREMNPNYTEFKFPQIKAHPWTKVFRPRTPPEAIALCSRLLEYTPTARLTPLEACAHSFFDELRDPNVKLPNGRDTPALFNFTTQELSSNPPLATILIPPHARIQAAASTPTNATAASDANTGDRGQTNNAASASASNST

[16] = biological target: Adenosylmethionine-8-amino-7-oxononanoate aminotransferase (Mycobacterium tuberculosis, UniProt P9WQ81); assay: Mycobacterium tuberculosis BioA enzyme inhibitor Measured in Biochemical System Using Plate Reader - 2163-02_Inhibitor_Dose_CherryPick_Activity.; type: functional, Mycobacterium tuberculosis UT205
Sequence of Adenosylmethionine-8-amino-7-oxononanoate aminotransferase (P9WQ81 whole entry): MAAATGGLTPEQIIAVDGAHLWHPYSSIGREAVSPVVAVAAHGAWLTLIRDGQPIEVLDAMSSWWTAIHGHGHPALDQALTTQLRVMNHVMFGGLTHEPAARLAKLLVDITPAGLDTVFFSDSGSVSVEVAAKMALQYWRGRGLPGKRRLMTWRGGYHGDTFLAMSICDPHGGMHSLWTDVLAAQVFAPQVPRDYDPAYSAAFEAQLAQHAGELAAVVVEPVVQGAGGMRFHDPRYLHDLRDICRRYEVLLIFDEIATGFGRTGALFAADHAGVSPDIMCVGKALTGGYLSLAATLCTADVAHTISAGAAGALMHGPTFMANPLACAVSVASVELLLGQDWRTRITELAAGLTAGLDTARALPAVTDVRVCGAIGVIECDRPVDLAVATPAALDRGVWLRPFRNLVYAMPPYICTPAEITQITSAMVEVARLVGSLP

CC(C)(C)C(=O)NC(=S)NNC(=O)C(c1ccccc1)c1ccccc1
EC50 [1]: 1.06 µM (active) | EC50 [2]: 5.35 µM (inconclusive) | IC50 [3]: 4.01 µM (active) | IC50 [4]: 6.48 µM (active) | EC50 [5]: 1.2 µM (active)

O=C(NC1CCCCC1)c1ccc(OC2CCN(Cc3ccccn3)CC2)cc1
IC50 [3]: 0.891 µM (active) | IC50 [6]: 8.43 µM (active) | IC50 [4]: 1.65 µM (active)

Cc1nnsc1C(=O)Nc1ccc(S(=O)(=O)N2CCC(C)CC2)cc1
IC50 (Protein Wnt-3a): 27.1 µM (inactive)

O=C(Nc1nc2ccc(Cl)cc2s1)c1nn(-c2ccccc2)ccc1=O
IC50 [7]: > 99 µM (inactive) | IC50 [8]: > 99 µM (inactive) | IC50 [9]: > 99 µM (inactive) | IC50 (Caspase-3): > 99 µM (inactive)

COC(=O)c1csc2ccc(=O)[nH]c12
Ki [10]: 12.6 µM (active) | Ki [11]: 15.8 µM (active) | Ki (LIM domain kinase 1): 15.8 µM (active) | Ki [12]: 25.1 µM (active) | Ki [13]: 79.4 µM (active) | Ki [14]: 63.1 µM (active) | Ki [15]: 79.4 µM (active)

C[C@@H]1CN([C@@H](C)CO)C(=O)c2cc(C#Cc3cccnc3)cnc2O[C@H]1CN(C)S(C)(=O)=O
AC50 [16]: 6.02 µM (active)
